Several values for one entry are separate records, joined by “and”; a condition that tells them apart may be missing. Identical values can stand only once.
What was measured:
Format in all cases: in vivo
[1] = tested on: Boophilus microplus larvae; assay: Control of Boophilus microplus larvae; conditions: Rhipicephalus microplus, 48 h, read-out: Percent Mortality of Boophilus microplus
Experimental: Twenty larvae are enclosed in a pipet sealed at one end with a gauze material, and a solution, containing the test compound at the concentrations given, is then drawn through the pipet with a vacuum hose simulating a spray system. The ticks are then held for 48 hours at room temperature, and percent mortality rates are then determined.

[2] = tested on: Malaria Mosquito (Anopheles quadrimaculatus); assay: Malaria Mosquito egg and larvae test
Experimental: Malaria Mosquito (Anopheles quadrimaculatus say) egg and larvae test. One ml of a 300 ppm solution is pipetted into a 400 ml beaker containing 250 ml of deionized water and stirred with the pipette, giving a concentration of 1.2 ppm. A wax paper ring 0.6 cm wide to fit inside the beaker is floated on the surface of the test solution to keep the eggs from floating up the meniscus curve and drying out on the side of the glass. A spoon made of screen is used to scoop up and transfer about 100 eggs (0-24 hours old) into the test beaker. After two days at 26.7°C. observations of hatching are made. This includes kill of eggs or inhibition of hatch, kill of newly hatched larvae, or delayed hatch. Additional observations are made after another day for the same effects. The rating system employed in these tests is as follows: Compounds rated active (8 or 9) are further tested at reduced concentrations in 50% acetone: 50% water.

[3] = tested on: Tobacco Budworm [Heliothis virescens] larvae; assay: Tobacco Budworm newly hatched larvae test; conditions: 3 days
Experimental: (§1) Tobacco Budworm [Heliothis virescens (Fabricus)].
(§2) A cotton plant with 2 true leaves expanded is dipped for 3 seconds with agitation in a 300 ppm solution. A 1.25 to 2 cm square of cheesecloth with about 50 to 100 budworm eggs 0-24 hours old is also dipped in the test solution and placed on one leaf to dry. The leaf with the treated budworm eggs is removed from the plant and placed in a 236.6 ml (8-Oz) Dixie cup with a wet 5 cm piece of dental wick and covered with a lid. The other leaf is placed in a similar cup with a wick and a piece of cheesecloth infested with 50-100 newly hatched larvae is added before covering the cup with a lid. After 3 days at 26.7° C., observations of egg hatch are made as well as kill of newly hatched larvae, any inhibition of feeding, or interference of any sort with normal development.
(§3) The rating system employed in these tests is as follows:
(§4) Compounds rated active (8 or 9) are further tested at reduced concentrations in 50% acetone: 50% water.

[4] = tested on: Tobacco Budworm [Heliothis virescens] eggs; assay: Tobacco Budworm egg test; conditions: 300 ppm, 3 days
Experimental: as §1, §2, §3, §4

[5] = tested on: Mexican Bean Beetle (Epilachna varivestis); assay: Mexican Bean Beetle test; conditions: 300 ppm
From the text: Mexican Bean Beetle (Epilachna varivestis Mulsant)
Sieva lima bean plants (2 per pot) with primary leaves 7.6 to 10 cm long, are dipped in a 300 ppm solution and set in a hood to dry. One leaf is removed from the plant and placed in a 10 cm petri dish containing a moist filter paper on the bottom and 10 last-instar larvae (13 days from hatching).
The day after treatment, another leaf is removed from the plant and fed to the larvae after removing the remains of the original leaf. Two days after treatment, the third leaf is fed to the larvae, this usually being the last needed. The fourth leaf is used on the third day after treatment if the larvae have not finished feeding. The test is now set aside and held until adults have emerged, usually about 9 days after treatment began. After emergence is complete, each dish is examined for dead larvae, pupae or adults; deformed pupae or adults; larval-pupal intermediates or pupal-adult intermediates; or any other interference with normal molting, transformation and emergence of pupae or adults.
as §3, §4

[6] = tested on: Southern Armyworm [Spodoptera eridania]; assay: Southern Armyworm test; conditions: 2 days
Experimental: Southern Armyworm [Spodoptera eridania (Cramer)].
A sieva lima bean plant with just the primary leaves expanded to 7.6 to 10 cm is dipped for 3 seconds with agitation in a 1000 ppm solution and set in a hood to dry. Following this, one leaf is placed in a 10 cm petri dish which has a moist filter paper in the bottom and 10 third-instar armyworm larvae about 1 cm long. The dish is covered and held at 26.7° C. After 2 days mortality counts and estimates of the amount of feeding are made. Compounds showing partial kill and/or inhibition of feeding are held for an extra day for further observations.
as §3, §4

[7] = tested on: Two-Spotted Spider Mite [Tetranychus urticae]; assay: Phosphate-Resistant Strain of Two-Spotted Spider Mite test
Experimental: Phosphate-Resistant Strain of Two-Spotted Spider Mite [Tetranychus urticae (Koch)].
Sieva lima bean plants, with primary leaves 7.6 to 10 cm long, are infested with about 100 adult mites per leaf 4 hours before use in this test, in order to allow egg-laying before treatment. The infested plants are dipped for 3 seconds with agitation into a 300 ppm solution, and the plants set in the hood to dry. After 2 days at 26.7° C., the adult mite mortality is estimated on one leaf under a 10X stereoscopic microscope. The other leaf is left on the plant an additional 5 days and then examined at 10X power to estimate the kill of eggs and of newly-hatched nymphs, giving a measure of ovicidal and residual action, respectively.
as §3, §4

[8] = tested on: Tobacco Budworm [Heliothis virescens] third instar; assay: Tobacco Budworm third instar test; conditions: 3 days
Experimental: Tobacco Budworm [Heliothis virescens (Fabricius)]. Third instar. Three cotton plants with just expanded cotyledons are dipped in a 1000 ppm solution, and placed in a hood to dry. When dry, each cotyledon is cut in half and 10 are each placed in a 29.6 ml plastic medicine cup containing a 1.25 cm dental wick saturated with water, and one third-instar budworm larva is added. The cup is capped and held for 3 days at 26.7° C., after which mortality counts are made. The rating system employed in these tests is as follows: Compounds rated active (8 or 9) are further tested at reduced concentrations in 50% acetone: 50% water.

[9] = tested on: Malaria Mosquito (Anopheles quadrimaculatus) adult; assay: Malaria Mosquito Adult Test; conditions: 1 day
Experimental: Malaria Mosquito (Anopheles quadrimaculatus Say) Adult Test
Ten ppm solutions are poured into wide-mouth 46.2 ml jars each containing a microscope slide. The slides are removed from the test solution with forceps and laid horizontally to dry on a wide-mouth 118.4 ml bottle. When dry, they are placed in the same 118.4 ml bottle and ten 4 to 5-day old mosquitoes of mixed sexes are added to each bottle. A piece of cotton gauze held on by an elastic band serves as a lid and a wad of cotton soaked in 10% honey solution serves as food. Mortality counts are made after 1 day at 26.7° C.
as §3, §4

[10] = tested on: Western Potato Leaf Hopper (Empoasca abrupta); assay: Western Potato Leaf Hopper test; conditions: 2 days
From the text: Western Potato Leaf Hopper (Empoasca abrupta DeLong)
A lima bean plant with the primary leaf expanded to 7.6 to 10 cm is dipped into a 100 ppm solution and set in a hood to dry. A 2.5 cm piece of the tip of 1 leaf is cut off and placed in a 10 cm petri dish with a moist filter paper in the bottom. (In practice, this is usually cut off the tip of a plant from the Mexican bean beetle tests using a bean leaf dipped in the needed solution). From 3 to 10 second-instar nymphs are tapped from the culture plants into the test dish and rapidly covered. Mortality counts are made after two days at 26.7° C.
as §3, §4

[11] = tested on: Cabbage Looper [Trichoplusia ni]; assay: Cabbage Looper test; conditions: 2 days
Experimental: Cabbage Looper. [Trichoplusia ni (Hubner)].
A primary leaf of a cotton plant is dipped in the test solution and agitated for 3 seconds. It is then set in a hood to dry. Following this, the leaf is placed in a 10 cm petri dish containing a moist filter paper at the bottom and 10 third-instar loopers. The dish is covered and held at 26.7° C. After 2 days, mortality counts and estimates of feeding damage are recorded. Those materials showing partial kill and/or inhibition of feeding are held for another day for further observations.
as §3, §4

Bean Aphid (Aphid fabae) = assay: Bean Aphid test; conditions: 1 day
Experimental: Bean Aphid (Aphid fabae Scopoli).
Five cm fiber pots, each containing a nasturtium plant 5 cm high and infested with 100 to 500 aphids 2 days earlier are placed on a 4 rpm turntable and sprayed with a 100 ppm solution of 2 revolutions with a No. 154 DeVilbiss Atomizer at 1.4 kg/cm^2 air pressure. The spray tip is held about 15 cm from the plants and the spray directed so as to give complete coverage of the aphids and the plants. The sprayed plants are laid on their sides on white enamel trays. Mortality estimates are made after 1 day at 26.7° C.
as §3, §4

Boophilus microplus = assay: Control of Ixodidae: engorged adult female ticks, reduction in viable egg masses
Experimental: The compound to be tested is dissolved in a 35% acetone/65% water mixture in amounts sufficient to provide the concentrations indicated in Table I below. Ten ticks per treatment are used and they are immersed in the test solution for three to five minutes, then removed and held in incubators for two to three weeks at 28° C. Counts of ticks laying eggs are then made and recorded. Eggs which were laid are placed in containers and kept for one month to observe hatching and to determine chemosterilant effect.
Percent reduction in viable egg masses is believed to be indicative of one or more of the following mechanisms:
2. Suppression of fecundity.
3. Chemosterilant effect.

CC1(C)C(C(=O)OC(C#N)c2cccc(Oc3ccccc3)c2)C12C=C(Cl)c1ccccc12 (stereo not shown) [drawing 7]
mortality at 0.012 ppm ([1]; 0.012 ppm): 0% | mortality at 0.05 ppm ([1]; 0.05 ppm): 0% | mortality at 0.78 ppm ([1]; 0.78 ppm): 80 to 100%

CC1(C)C(C(=O)OCc2cccc(Oc3ccccc3)c2)C12C=C(Cl)c1ccccc12 (stereo not shown) [drawing 8]
mortality at 100 ppm ([1]; 100 ppm): 100%

CC1(C)C(C(=O)OC(C#N)c2cccc(Oc3ccccc3)c2)C12C=C(Cl)c1ccccc12 (stereo not shown) [drawing 9]
Insecticidal activity rating, Mosquito Larvae ([2]; 0.04 ppm): 9 (100% mortality) | Insecticidal activity rating, Mosquito Larvae ([2]; 0.4 ppm): 9 (100% mortality) | Insecticidal activity rating, Mosquito Larvae ([2]; 1.2 ppm): 9 (100% mortality) | Insecticidal activity rating, Tobacco Budworm Larvae ([3]; 10 ppm): 9 (100% mortality) | Insecticidal activity rating, Tobacco Budworm Larvae ([3]; 100 ppm): 9 (100% mortality) | Insecticidal activity rating, Tobacco Budworm Larvae ([3]; 300 ppm): 9 (100% mortality) | Insecticidal activity rating, Tobacco Budworm Eggs [4]: 0 (0-4% killed or affected)

CC1(C)C(C(=O)OCc2cccc(Oc3ccccc3)c2)C12C=C(Cl)c1ccccc12 (stereo not shown) [drawing 12]
Insecticidal activity rating, Mexican Bean Beetles [5]: 9 (100% mortality) | Insecticidal activity rating, Southern Armyworms ([6]; 10 ppm): 0 (0-4% killed or affected) | Insecticidal activity rating, Southern Armyworms ([6]; 100 ppm): 9 (100% mortality) | Insecticidal activity rating, Southern Armyworms ([6]; 1000 ppm): 9 (100% mortality) | Activity rating, Phosphate Resistant Mites ([7]; 100 ppm): 0 (0-4% killed or affected) | Activity rating, Phosphate Resistant Mites ([7]; 300 ppm): 8 (86-95% mortality)

CC1(C)C(C(=O)OC(C#N)c2cccc(Oc3ccccc3)c2)C12C=C(Cl)c1ccccc12 (stereo not shown) [drawing 13]
Insecticidal activity rating, Tobacco Budworm 3rd Instar ([8]; 100 ppm): 0 (0-4% killed or affected) | Insecticidal activity rating, Tobacco Budworm 3rd Instar ([8]; 1000 ppm): 5 (51-60% mortality) | Insecticidal activity rating, Mosquito, Adult ([9]; 1 ppm): 7 (71-85% mortality) and 6 (61-70% mortality) and 9 (100% mortality) | Insecticidal activity rating, Mosquito, Adult ([9]; 10 ppm): 9 (100% mortality) | Insecticidal activity rating, Leaf Hopper ([10]; 10 ppm): 9 (100% mortality) | Insecticidal activity rating, Leaf Hopper ([10]; 100 ppm): 9 (100% mortality) | Insecticidal activity rating, Cabbage Looper ([11]; 100 ppm): 9 (100% mortality) | Insecticidal activity rating, Cabbage Looper ([11]; 1000 ppm): 9 (100% mortality) | Insecticidal activity rating, Bean Aphids (Bean Aphid (Aphid fabae); 1 ppm): 9 (100% mortality) | Insecticidal activity rating, Bean Aphids (Bean Aphid (Aphid fabae); 10 ppm): 9 (100% mortality) | Insecticidal activity rating, Bean Aphids (Bean Aphid (Aphid fabae); 100 ppm): 9 (100% mortality)

CC1(C)C(C(=O)OCc2cccc(Oc3ccccc3)c2)C12C=C(Cl)c1ccccc12 (stereo not shown) [drawing 14]
Insecticidal activity rating, Tobacco Budworm 3rd Instar ([8]; 100 ppm): 5 (51-60% mortality) | Insecticidal activity rating, Tobacco Budworm 3rd Instar ([8]; 1000 ppm): 9 (100% mortality) | Insecticidal activity rating, Mosquito, Adult ([9]; 10 ppm): 0 (0-4% killed or affected) | Insecticidal activity rating, Leaf Hopper ([10]; 10 ppm): 9 (100% mortality) | Insecticidal activity rating, Leaf Hopper ([10]; 100 ppm): 9 (100% mortality) | Insecticidal activity rating, Cabbage Looper ([11]; 100 ppm): 9 (100% mortality) | Insecticidal activity rating, Cabbage Looper ([11]; 1000 ppm): 9 (100% mortality) | Insecticidal activity rating, Bean Aphids (Bean Aphid (Aphid fabae); 1 ppm): 0 (0-4% killed or affected) | Insecticidal activity rating, Bean Aphids (Bean Aphid (Aphid fabae); 10 ppm): 9 (100% mortality) | Insecticidal activity rating, Bean Aphids (Bean Aphid (Aphid fabae); 100 ppm): 9 (100% mortality)

CC1(C)C(C(=O)OC(C#N)c2cccc(Oc3ccccc3)c2)C12C=C(Cl)c1ccccc12 (stereo not shown) [drawing 5]
Percent reduction in viable egg masses (Boophilus microplus; 125 ppm): 98%

CC1(C)C(C(=O)OCc2cccc(Oc3ccccc3)c2)C12C=C(Cl)c1ccccc12 (stereo not shown) [drawing 6]
Percent reduction in viable egg masses (Boophilus microplus; 15 ppm): 0% | Percent reduction in viable egg masses (Boophilus microplus; 31 ppm): 72.7% | Percent reduction in viable egg masses (Boophilus microplus; 62 ppm): 83.9% | Percent reduction in viable egg masses (Boophilus microplus; 125 ppm): 91.9%

— patent US4358607A, “Chloro-substituted benzospiro cyclopropane carboxylic acid” (American Cyanamid Co., priority 1978, dated 1982)
